Format in all cases: functional
The target in assay [1] is T1, Thioredoxin reductase (Homo sapiens) (UniProt Q16881+Q9NNW7+Q86VQ6). In words: Inhibition of human thioredoxin signalling assessed as inhibition of insulin reduction at 10 uM.
The subject of assay [2] is Panel NCI-60 (60 carcinoma cell lines). Description: Antitumor activity against human NCI60 cells.
In another assay the test system is MDA-MB-468. In words: Antitumor activity against human MDA-MB-468 cells by MTT assay.
In assay [3] the target is T1, Thioredoxin reductase (Homo sapiens). Description: Inhibition of human thioredoxin signalling assessed as inhibition of insulin reduction at 50 uM.
Assay [4] has the same target. In words: Inhibition of human thioredoxin signalling assessed as inhibition of insulin reduction at 100 uM.
The subject of another assay is HT-29. Description: Antitumor activity against human HT29 cells by MTT assay.
In assay [5] the target is T1, Thioredoxin reductase (Homo sapiens). Description: Inhibition of human thioredoxin signalling assessed as inhibition of insulin reduction at 25 uM.
The subject of another assay is HCT-116. In words: Antitumor activity against human HCT116 cells by MTT assay.
The next assay concerns MCF7. In words: Antitumor activity against human MCF7 cells by MTT assay.

SMILES strings stand for the structures.

In the case of `O=C1C=CC(O)(c2nc3ccccc3s2)C=C1`, the inhibition in [1] amounted to 13.2%; in assay [3], 94.8%; in assay [4], 95.8%; in [5], 35.1%. In addition, the GI50 is 0.23 µM in [2]; 0.41 µM with MDA-MB-468; 0.59 µM in the assay on HT-29; 0.11 µM in the assay on HCT-116; 0.44 µM in the assay with MCF7.
